Source: US10428081B2, “EGFR inhibitor, preparation method and use thereof” (Shanghai Hansoh Biomedical Co., Ltd., priority 2014, dated 2019)

How the values were obtained:
A431 cells = test: Inhibition of A431 cell proliferation (CellTiter-Glo); type: cell-based; details: Homo sapiens, A-431, 72 h, read-out: EGFR IC50 (nM) A431
Protocol: 4. Experiment on the Inhibition of A431 Cell Proliferation
In this experiment, the inhibitory effect of the compounds on A431 cell proliferation was tested by a CellTiter-Glo method, and the half maximal inhibitory concentration (IC50) of the compounds on the activity of cell proliferation was determined.
The culture plate was incubated in the incubator for 16 to 24 hours (37° C., 5% CO2).
(§1) 2) Different concentrations of the test compound in a gradient dilution were added to the cells in the culture plate. The culture plate was incubated in an incubator for 72 hours (37° C., 5% CO2).
3) 50 to 100 μL of CellTiter-Glo reagent was added to each well. Then the culture plate was shaken for 10 minutes, and left to stand at room temperature for 10 minutes.
(§2) 4) The chemiluminescence signal values of each plate were determined by a microplate reader.
5) The inhibition rates were calculated according to the chemiluminescence signal values. 6) The IC50 of the compound was obtained by curve fitting according to the inhibition rates at different concentrations.

NCI-H1975 cells = test: Inhibition of NCI-H1975 cell proliferation (CellTiter-Glo); type: cell-based; details: for IC50: Homo sapiens, NCI-H1975, 72 h, NCI-H1975 cell proliferation, 72 hours, CellTiter-Glo, read-out: EGFR IC50 (nM) H1975; for Selectivity of wild-type/mutant-type: ratio A431 IC50 / H1975 IC50, cells
Protocol: 3. Experiment on the Inhibition of NCI-H1975 Cell Proliferation
In this experiment, the inhibitory effect of the compounds on NCI-H1975 cell proliferation was tested by a CellTiter-Glo method, and the half maximal inhibitory concentration (IC50) of the compounds on the activity of cell proliferation was determined.
The culture plate was incubated in an incubator for 16 to 24 hours (37° C., 5% CO2).
as §1
3) 50 to 100 μL of CellTiter-Glo reagent was added to each well. Then, the culture plate was shaken for 10 minutes, and left to stand at room temperature for 10 minutes.
as §2
5) The inhibition rates were calculated according to the chemiluminescence signal values.
6) The IC50 of the compound was obtained by curve fitting according to the inhibition rates at different concentrations.

[1] = target: exon 20 T790M mutant-type EGFR enzyme (Homo sapiens, UniProt P00533, T790M); test: Enzymologic experiment of T790M mutant-type EGFR (TR-FRET); type: biochemical; details: for IC50: T790M EGFR enzyme, TR-FRET, ATP 1 to 10 uM; for Selectivity of wild-type/mutant-type: ratio WT IC50 / T790M IC50, enzyme
Protocol: (§3) 2) 1 to 5 μL of diluted solution in gradient of the compound was added.
(§4) 3) The mixture was incubated for 10 minutes at room temperature.
(§5) 6) 5 μL of EDTA stop solution was added to terminate the reaction for 5 minutes.
7) […] of a test solution containing the labeled antibody was added, and the mixture was incubated at room temperature for 1 hour.
9) The inhibition rates were calculated according to the fluorescence signal values.
(§6) 10) The IC50 of the compound was obtained by curve fitting according to the inhibition rates at different concentrations.

wild-type EGFR enzyme = wild-type EGFR enzyme (Homo sapiens, UniProt P00533); test: Enzymologic experiment of wild-type (WT) EGFR (TR-FRET); type: biochemical; details: ATP 0.1 to 5 uM
Protocol: 2. Enzymologic Experiment of Wild-Type (WT) EGFR
In this experiment, the inhibitory effect of compounds on wild-type EGFR enzyme was tested by a fluorescence resonance energy transfer (TR-FRET) method, and the half maximal inhibitory concentration IC50 of the compounds on enzymatic activity was determined.
1) 1 to 5 μL of wild-type EGFR enzyme solution was added to a 384-well plate, and the final concentration of the enzyme was 0.1 to 1 nM.
as §3, §4, §5
7) 5 μL of a test solution containing the labeled antibody was added, and the mixture was incubated at room temperature for 1 hour.
9) The inhibition rates were calculated from the fluorescence signal values.
as §6

exon 20 T790M mutant-type EGFR enzyme, sequence (P00533 25-1210 T790M): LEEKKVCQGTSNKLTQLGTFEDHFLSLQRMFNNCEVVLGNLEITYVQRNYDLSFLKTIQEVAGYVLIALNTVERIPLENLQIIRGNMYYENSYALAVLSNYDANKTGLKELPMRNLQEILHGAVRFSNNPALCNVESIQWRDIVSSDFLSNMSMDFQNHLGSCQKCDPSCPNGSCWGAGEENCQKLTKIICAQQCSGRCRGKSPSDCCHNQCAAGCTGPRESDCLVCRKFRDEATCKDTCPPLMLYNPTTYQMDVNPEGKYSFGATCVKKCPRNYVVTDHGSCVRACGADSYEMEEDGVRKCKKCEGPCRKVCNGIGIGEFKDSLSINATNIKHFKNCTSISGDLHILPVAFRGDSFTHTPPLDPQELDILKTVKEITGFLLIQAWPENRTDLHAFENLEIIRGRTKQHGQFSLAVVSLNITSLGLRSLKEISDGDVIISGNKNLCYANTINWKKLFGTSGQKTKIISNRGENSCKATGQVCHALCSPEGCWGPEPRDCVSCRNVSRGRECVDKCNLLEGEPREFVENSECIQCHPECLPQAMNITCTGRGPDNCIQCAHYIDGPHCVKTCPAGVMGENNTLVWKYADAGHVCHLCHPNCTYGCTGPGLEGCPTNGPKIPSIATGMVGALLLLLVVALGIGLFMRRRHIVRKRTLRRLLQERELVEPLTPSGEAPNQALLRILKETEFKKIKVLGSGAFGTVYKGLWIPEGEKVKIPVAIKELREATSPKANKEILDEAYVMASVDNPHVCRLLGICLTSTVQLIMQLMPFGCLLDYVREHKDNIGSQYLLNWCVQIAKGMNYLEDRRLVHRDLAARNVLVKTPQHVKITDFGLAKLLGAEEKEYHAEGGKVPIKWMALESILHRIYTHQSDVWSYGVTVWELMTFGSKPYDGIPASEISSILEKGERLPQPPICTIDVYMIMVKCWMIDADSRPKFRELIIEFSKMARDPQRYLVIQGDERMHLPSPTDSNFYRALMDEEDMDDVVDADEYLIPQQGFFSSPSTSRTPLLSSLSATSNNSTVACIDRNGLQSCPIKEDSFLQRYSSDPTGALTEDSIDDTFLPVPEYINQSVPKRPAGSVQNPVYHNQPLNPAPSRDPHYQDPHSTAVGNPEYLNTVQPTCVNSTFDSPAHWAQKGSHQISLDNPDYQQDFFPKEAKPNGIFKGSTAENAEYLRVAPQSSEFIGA
wild-type EGFR enzyme, sequence (P00533 25-1210): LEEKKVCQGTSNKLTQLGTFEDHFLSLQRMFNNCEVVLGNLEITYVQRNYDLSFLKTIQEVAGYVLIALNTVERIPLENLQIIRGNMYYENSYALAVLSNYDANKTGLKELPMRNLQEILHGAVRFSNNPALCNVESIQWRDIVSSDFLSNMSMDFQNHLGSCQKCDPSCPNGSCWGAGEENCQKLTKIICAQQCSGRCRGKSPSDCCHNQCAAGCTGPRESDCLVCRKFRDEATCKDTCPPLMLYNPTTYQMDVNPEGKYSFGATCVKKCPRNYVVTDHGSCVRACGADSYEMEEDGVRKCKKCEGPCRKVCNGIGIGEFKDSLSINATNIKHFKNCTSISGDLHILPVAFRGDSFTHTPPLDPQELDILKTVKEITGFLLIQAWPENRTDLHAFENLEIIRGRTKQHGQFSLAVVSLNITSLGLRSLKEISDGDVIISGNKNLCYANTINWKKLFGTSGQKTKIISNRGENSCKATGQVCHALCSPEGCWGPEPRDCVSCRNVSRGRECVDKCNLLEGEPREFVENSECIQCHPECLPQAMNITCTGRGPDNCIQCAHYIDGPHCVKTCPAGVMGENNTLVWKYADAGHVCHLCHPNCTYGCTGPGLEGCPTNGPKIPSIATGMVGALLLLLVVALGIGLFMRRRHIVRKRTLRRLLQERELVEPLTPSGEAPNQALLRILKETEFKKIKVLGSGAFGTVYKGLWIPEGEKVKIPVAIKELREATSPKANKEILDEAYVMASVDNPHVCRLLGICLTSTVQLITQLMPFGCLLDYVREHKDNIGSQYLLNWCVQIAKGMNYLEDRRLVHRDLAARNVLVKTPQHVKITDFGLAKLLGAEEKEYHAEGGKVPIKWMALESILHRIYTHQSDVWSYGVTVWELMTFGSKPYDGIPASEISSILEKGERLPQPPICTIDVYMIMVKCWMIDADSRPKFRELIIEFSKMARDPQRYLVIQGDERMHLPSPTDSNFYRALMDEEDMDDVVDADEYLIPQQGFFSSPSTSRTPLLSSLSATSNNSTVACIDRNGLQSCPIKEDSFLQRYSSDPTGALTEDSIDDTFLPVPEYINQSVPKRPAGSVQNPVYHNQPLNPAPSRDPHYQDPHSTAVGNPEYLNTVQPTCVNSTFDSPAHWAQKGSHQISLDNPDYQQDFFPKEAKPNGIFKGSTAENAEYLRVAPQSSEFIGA

Compound | IC50 (A431 cells) | IC50 (NCI-H1975 cells) | Selectivity of wild-type/mutant-type (NCI-H1975 cells) | IC50 [1] | Selectivity of wild-type/mutant-type [1] | IC50 (wild-type EGFR enzyme)
C=CC(=O)Nc1cc(Nc2nccc(-c3cn(S(=O)(=O)N(C)C)c4ccccc34)n2)c(OC(F)F)cc1N(C)CCN(C)C [Example 21, N-(4-(difluoromethoxy)-2-((2-(dimethylamino)ethyl)(methyl)amino)-5-((4-(1-(N,N-dimethylsulfamoyl)-1H-indol-3-yl)pyrimidin-2-yl)amino)phenyl)acrylamide] | 70.8 nM | 3.23 nM | 21.93 | 0.3 nM | 1.33 | 0.4 nM
C=CC(=O)Nc1cc(Nc2nccc(-c3cn(C)c4cc(C5CC5)ccc34)n2)c(OC)cc1N(C)CCN(C)C [Example 22, N-(5-((4-(6-cyclopropyl-1-methyl-1H-indol-3-yl)pyrimidin-2-yl)amino)-2-((2-(dimethylamino)ethyl)(methyl)amino)-4-methoxyphenyl)acrylamide] | 800 nM | 13.2 nM | 60.6 | 0.71 nM | 10.4 | 7.44 nM
C=CC(=O)Nc1cc(Nc2nccc(-c3cn(C)c4ccc(OC)cc34)n2)c(OC)cc1N(C)CCN(C)C [Example 24, N-(2-((2-(dimethylamino)ethyl)(methyl)amino)-4-methoxy-5-((4-(5-methoxy-1-methyl-1H-indol-3-yl)pyrimidin-2-yl)amino)phenyl)acrylamide] | 453 nM | 8.62 nM | 52.59 | 3.53 nM | 1.1 | 4.02 nM
C=CC(=O)Nc1cc(Nc2nccc(-c3cn(C)c4cc(OC)ccc34)n2)c(OC)cc1N(C)CCN(C)C [Example 25, N-(2-((2-(dimethylamino)ethyl)(methyl)amino)-4-methoxy-5-((4-(6-methoxy-1-methyl-1H-indol-3-yl)pyrimidin-2-yl)amino)phenyl)acrylamide] | 93.2 nM | 4.56 nM | 20.45 | 0.36 nM | 19.9 | 7.11 nM
C=CC(=O)Nc1cc(Nc2nccc(-c3cn(C)c4cc(F)c(F)cc34)n2)c(OC)cc1N(C)CCN(C)C [Example 28, N-(5-((4-(5,6-difluoro-1-methyl-1H-indol-3-yl)pyrimidin-2-yl)amino)-2-((2-(dimethylamino)ethyl)(methyl)amino)-4-methoxyphenyl)acrylamide] | 272 nM | 6.4 nM | 42.52 | 1.83 nM | 1.0 | 1.89 nM
C=CC(=O)Nc1cc(Nc2nccc(-n3ncc4ccccc43)n2)c(OC)cc1N(C)CCN(C)C [Example 40, N-(5-((4-(1H-indazol-1-yl)pyrimidin-2-yl)amino)-2-((2-(dimethylamino)ethyl)(methyl)amino)-4-methoxyphenyl)acrylamide] | 339 nM | 1.95 nM | 174.05 | 0.39 nM | 8.62 | 3.36 nM
C=CC(=O)Nc1cc(Nc2nccc(-n3ncc4c(OC)cccc43)n2)c(OC)cc1N(C)CCN(C)C [Example 41, N-(2-((2-(dimethylamino)ethyl)(methyl)amino)-4-methoxy-5-((4-(4-methoxy-1H-indazol-1-yl)pyrimidin-2-yl)amino)phenyl)acrylamide] | 138 nM | 5.93 nM | 23.36 | 0.51 nM | 4.90 | 2.5 nM
C=CC(=O)Nc1cc(Nc2nccc(-n3ncc4ccc(OC)cc43)n2)c(OC)cc1N(C)CCN(C)C [Example 42, N-(2-((2-(dimethylamino)ethyl)(methyl)amino)-4-methoxy-5-((4-(6-methoxy-1H-indazol-1-yl)pyrimidin-2-yl)amino)phenyl)acrylamide] | 76.3 nM | 5 nM | 15.25 | 0.48 nM | 1.71 | 0.82 nM
C=CC(=O)Nc1cc(Nc2nccc(-n3nc(C4CC4)c4ccccc43)n2)c(OC)cc1N(C)CCN(C)C [Example 44, N-(5-((4-(3-cyclopropyl-1H-indazol-1-yl)pyrimidin-2-yl)amino)-2-((2-(dimethylamino)ethyl)(methyl)amino)-4-methoxyphenyl)acrylamide] | 406 nM | 7.13 nM | 56.93 | 0.38 nM | 6.58 | 2.5 nM
C=CC(=O)Nc1cc(Nc2ncc(Cl)c(-n3ncc4cc(OC)ccc43)n2)c(OC)cc1N(C)CCN(C)C [Example 48, N-(5-((5-chloro-4-(5-methoxy-1H-indazol-1-yl)pyrimidin-2-yl)amino)-2-((2-(dimethylamino)ethyl)(methyl)amino)-4-methoxyphenyl)acrylamide] | 102 nM | 1.75 nM | 58.06 | 0.24 nM | 10.5 | 2.52 nM
C=CC(=O)Nc1cc(Nc2ncc(C(F)(F)F)c(-n3ncc4cc(OC)ccc43)n2)c(OC)cc1N(C)CCN(C)C [Example 49, N-(2-((2-(dimethylamino)ethyl)(methyl)amino)-4-methoxy-5-((4-(5-methoxy-1H-indazol-1-yl)-5-(trifluoromethyl)pyrimidin-2-yl)amino)phenyl)acrylamide] | 128 nM | 1.93 nM | 66.48 | 0.17 nM | 37.06 | 6.3 nM
C=CC(=O)Nc1cc(Nc2nccc(-n3ncc4cc(C#N)ccc43)n2)c(OC)cc1N(C)CCN(C)C [Example 50, N-(5-((4-(5-cyano-1H-indazol-1-yl)pyrimidin-2-yl)amino)-2-((2-(dimethylamino)ethyl)(methyl)amino)-4-methoxyphenyl)acrylamide] | 503 nM | 6.14 nM | 81.87 | 0.66 nM | 9.68 | 6.39 nM
C=CC(=O)Nc1cc(Nc2ncc(Cl)c(-n3ncc4cc(C#N)ccc43)n2)c(OC)cc1N(C)CCN(C)C [Example 51, N-(5-((5-chloro-4-(5-cyano-1H-indazol-1-yl)pyrimidin-2-yl)amino)-2-((2-(dimethylamino)ethyl)(methyl)amino)-4-methoxyphenyl)acrylamide] | 394 nM | 5.06 nM | 77.94 | 0.53 nM | 27.56 | 14.5 nM
C=CC(=O)Nc1cc(Nc2nccc(-n3nc(C)c4cc(OC)c(OC)cc43)n2)c(OC)cc1N(C)CCN(C)C [Example 53, N-(5-((4-(5,6-dimethoxy-3-methyl-1H-indazol-1-yl)pyrimidin-2-yl)amino)-2-((2-(dimethylamino)ethyl)(methyl)amino)-4-methoxyphenyl)acrylamide] | 628 nM | 20 nM | 31.38 | 2.53 nM | 13.50 | 34.1 nM
C=CC(=O)Nc1cc(Nc2nccc(-n3nc(C)c4ccc(OC)cc43)n2)c(OC)cc1N(C)CCN(C)C [Example 54, N-(2-((2-(dimethylamino)ethyl)(methyl)amino)-4-methoxy-5-((4-(6-methoxy-3-methyl-1H-indazol-1-yl)pyrimidin-2-yl)amino)phenyl)acrylamide] | 71.2 nM | 2.75 nM | 25.90 | 0.36 nM | 6.14 | 2.21 nM
